# Measured values taken from patent US20070122352A1, “Inhalation Drug Combinations” (GLAXO GROUP LIMITED, priority 2001, published 2007).
# Tested on: HPA axis
# Assay: 24-hour urinary cortisol excretion as a measure of HPA suppression
# Format: in vivo, human
# Conditions: 24 h post-dose urine, single dose, healthy subjects
# Description: The below examples are used to exemplify the present invention and are in no way meant to narrow the scope of the invention. The examples compare the systemic pharmacokinetic and pharmacodynamic of a MDI made up of two drugs, namely, salmeterol and fluticasone propionate combined in a HFA propellant, namely 134a, with individual salmeterol and fluticasone propionate MDIs in a CFC propellant administered individually and with placebo (HFA 134a propellant alone). Healthy human subjects were given either salmeterol and fluticasone propionate in HFA 134a propellant, salmeterol in P11/P12, fluticasone propionate in P11/P12, or a placebo in HFA 134a propellant, in a randomized, single dose, crossover study. Potential side effects such as increased heart rate and QTc interval were measured. The levels of cortisol in the urine were also measured as a measure of HPA suppression. Twenty healthy human subjects were randomized into one of four treatment groups. […] Cortisol levels were determined from 500 μl of urine by automated immunochemiluminescence on the ASC-180 (Bayer Diagnostics) following preliminary extraction of the urine with dichloromethane. […] For untransformed parameters, the 90% (or 95%) confidence interval for the difference in least squares means was expressed as a ratio of the individual mean.
compound,measurement,value
"CCC(=O)O[C@]1(C(=O)SCF)[C@H](C)C[C@H]2[C@@H]3C[C@H](F)C4=CC(=O)C=C[C@]4(C)[C@@]3(F)[C@@H](O)C[C@@]21C [fluticasone propionate, S-(fluoromethyl)6α,9-difluro-11β,17-dihydroxy-16α-methyl-3-oxoandrosta-1,4-diene-17β-carbothioate,17-propionate]",post-treatment geometric mean urinary cortisol excreted,18.5 µg
